These results are taken from patent publication US11319315B2, “Cyclohexyl acid triazole azoles as LPA antagonists” (BRISTOL-MYERS SQUIBB COMPANY, priority 2017, dated 2022).

Molecules are shown by their SMILES. Like-named read-outs stand apart in the source and are kept apart here.

This assay addresses T1, human LPA1 (Homo sapiens, UniProt Q92633).
T1 construct: expressed in transfected cells; host or cells: Chinese hamster ovary (CHO) cells
Description: LPA1 functional antagonist assay (LPA-induced calcium flux in CHO cells overexpressing human LPA1). The format is cell-based. Particulars: read-out: hLPA1 IC50. Summed up: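 CHO cells overexpressing human LPA1, dye-loaded 30 min at 37 °C, then given compound (0.08 nM–5 μM final, 0.5% DMSO) in HBSS/20 mM HEPES/0.1% fatty-acid-free BSA for 20 min at room temperature before 10 nM LPA. IC50 as 50% inhibition of LPA-evoked calcium flux, 4-parameter logistic fit.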
A general note: Calcium flux is commonly read through the fluorescence of an indicator in the cells.

The mark [1] stands for this setting: inhibition of calcium flux induced by 10 nM LPA, CHO cells overexpressing human LPA1.

Usually IC50 stands for the point on the concentration scale where inhibition reaches its midpoint.

T1 sequence (Q92633 whole entry): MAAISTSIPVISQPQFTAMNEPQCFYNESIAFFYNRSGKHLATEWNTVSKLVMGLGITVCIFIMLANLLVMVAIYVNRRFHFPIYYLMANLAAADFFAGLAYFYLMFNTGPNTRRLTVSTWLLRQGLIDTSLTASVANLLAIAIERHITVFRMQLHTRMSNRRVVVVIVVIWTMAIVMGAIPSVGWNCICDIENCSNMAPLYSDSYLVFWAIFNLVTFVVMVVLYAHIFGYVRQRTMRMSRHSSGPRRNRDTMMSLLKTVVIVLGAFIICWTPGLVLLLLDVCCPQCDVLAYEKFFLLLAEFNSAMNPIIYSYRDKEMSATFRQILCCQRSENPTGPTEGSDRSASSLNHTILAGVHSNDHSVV

Regarding `Cc1nc(-c2nnn(C)c2Cn2nnc(OC3CCC3)n2)ccc1O[C@H]1CCC[C@H](C(=O)O)C1` [Example 333, (1S,3S)-3-[(6-{5-[(5-cyclobutoxy-2H-1,2,3,4-tetrazol-2-yl)methyl]-1-methyl-1H-1,2,3-triazol-4-yl}-2-methylpyridin-3-yl)oxy]cyclo-hexane-1-carboxylic acid], the IC50 under setting [1] stood at 48 nM.

Regarding `Cc1nc(-c2nnn(C)c2Cn2nnc(OCC3CC(F)(F)C3)n2)ccc1O[C@H]1CCC[C@@H](C(=O)O)C1` [Example 334, (1R,3S)-3-({6-[5-({5-[(3,3-difluoro-cyclobutyl)methoxy]-2H-1,2,3,4-tetrazol-2-yl}methyl)-1-methyl-1H-1,2,3-triazol-4-yl]-2-methylpyridin-3-yl}oxy)cyclohexane-1-carboxylic acid], the IC50 under setting [1] is 258 nM.

Take `Cc1nc(-c2nnn(C)c2Cn2nnc(OC3CCC3)n2)ccc1O[C@H]1CCC[C@@H](C(=O)O)C1` [Example 335, (1R,3S)-3-[(6-{5-[(5-cyclobutoxy-2H-1,2,3,4-tetrazol-2-yl)methyl]-1-methyl-1H-1,2,3-triazol-4-yl}-2-methylpyridin-3-yl)oxy]cyclo-hexane-1-carboxylic acid]: the concentration for half-maximal inhibition (IC50) under setting [1] worked out at 405 nM.

For the compound `Cc1nc(-c2nnn(C)c2Cn2nnc(OC3CCCC3)n2)ccc1O[C@H]1CCC[C@H](C(=O)O)C1` [Example 336, (1S,3S)-3-{[6-(5-{[5-(cyclopentyl-oxy)-2H-1,2,3,4-tetrazol-2-yl]methyl}-1-methyl-1H-1,2,3-triazol-4-yl)-2-methylpyridin-3-yl]oxy}cyclohexane-1-carboxylic acid], under setting [1], the IC50 is 67 nM.

Turning to `Cc1nc(-c2nnn(C)c2Cn2nnc(OC3CCCC3)n2)ccc1O[C@H]1CCC[C@@H](C(=O)O)C1` [Example 337, (1R,3S)-3-{[6-(5-{[5-(cyclopentyloxy)-2H-1,2,3,4-tetrazol-2-yl]methyl}-1-methyl-1H-1,2,3-triazol-4-yl)-2-methylpyridin-3-yl]oxy}cyclohexane-1-carboxylic acid], under setting [1], the 50% inhibitory concentration (IC50) was found to be 546 nM.

In the case of `Cc1nc(-c2nnn(C)c2Cn2nnc(OCC3CC(F)(F)C3)n2)ccc1O[C@H]1CCC[C@H](C(=O)O)C1` [Example 338], under setting [1], the IC50 turned out to be 43 nM.

In the case of `Cc1nc(-c2nnn(C)c2Cn2nnc(OCC3CC3)n2)ccc1O[C@H]1CCC[C@@H](C(=O)O)C1` [Example 339, (1R,3S)-3-{[6-(5-{[5-(cyclopropyl-methoxy)-2H-1,2,3,4-tetrazol-2-yl]methyl}-1-methyl-1H-1,2,3-triazol-4-yl)-2-methylpyridin-3-yl]oxy}cyclohexane-1-carboxylic acid], the IC50 under setting [1] came to 192 nM.

For the compound `CCCOc1nnn(Cc2c(-c3ccc(O[C@H]4CCC[C@H](C(=O)O)C4)c(C)n3)nnn2C)n1` [Example 340], the half-inhibitory concentration (IC50) under setting [1] was determined as 97 nM.

In the case of `Cc1nc(-c2nnn(C)c2Cn2nnc(OC3CC3)n2)ccc1O[C@H]1CCC[C@@H](C(=O)O)C1` [Example 341, (3S)-3-[(6-{5-[(5-cyclopropoxy-2H-1,2,3,4-tetrazol-2-yl)methyl]-1-methyl-1H-1,2,3-triazol-4-yl}-2-methylpyridin-3-yl)oxy]cyclo-hexane-1-carboxylic acid], the IC50 under setting [1] is 81 nM.

As to `Cc1nc(-c2nnn(C)c2Cn2nnc(OCc3ccccc3)n2)ccc1O[C@H]1CCC[C@H](C(=O)O)C1` [Example 342, (1S,3S)-3-{[6-(5-{[5-(benzyloxy)-2H-1,2,3,4-tetrazol-2-yl]methyl}-1-methyl-1H-1,2,3-triazol-4-yl)-2-methylpyridin-3-yl]oxy}cyclo-hexane-1-carboxylic acid], under setting [1], the IC50 was 11 nM.

Take `Cc1nc(-c2nnn(C)c2Cn2nnc(S(C)(=O)=O)n2)ccc1O[C@H]1CCC[C@H](C(=O)O)C1` [Example 343, (1S,3S)-3-[(6-{5-[(5-methane-sulfonyl-2H-1,2,3,4-tetrazol-2-yl)methyl]-1-methyl-1H-1,2,3-triazol-4-yl}-2-methylpyridin-3-yl)oxy]cyclohexane-1-carboxylic acid]: under setting [1], the IC50 is 1100 nM.

`Cc1nc(-c2nnn(C)c2Cn2nnc(OCC(C)C)n2)ccc1O[C@H]1CCC[C@H](C(=O)O)C1` [Example 344, (1S,3S)-3-{[2-methyl-6-(1-methyl-5-{[5-(2-methylpropoxy)-2H-1,2,3,4-tetrazol-2-yl]methyl}-1H-1,2,3-triazol-4-yl)pyridin-3-yl]oxy}cyclohexane-1-carboxylic acid]: the half-maximal inhibitory concentration (IC50) under setting [1] was determined as 25 nM.

In the case of `CCCCOc1nnn(Cc2c(-c3ccc(O[C@H]4CCC[C@H](C(=O)O)C4)c(C)n3)nnn2C)n1` [Example 345, (1S,3S)-3-[(6-{5-[(5-butoxy-2H-1,2,3,4-tetrazol-2-yl)methyl]-1-methyl-1H-1,2,3-triazol-4-yl}-2-methylpyridin-3-yl)oxy]cyclo-hexane-1-carboxylic acid], the IC50 under setting [1] was 32 nM.

For the compound `Cc1nc(-c2nnn(C)c2Cn2nnc(OC(C)C)n2)ccc1O[C@H]1CCC[C@H](C(=O)O)C1` [Example 346, (1S,3S)-3-{[2-methyl-6-(1-methyl-5-{[5-(propan-2-yloxy)-2H-1,2,3,4-tetrazol-2-yl]methyl}-1H-1,2,3-triazol-4-yl)pyridin-3-yl]oxy}cyclohexane-1-carboxylic acid], the IC50 under setting [1] is 49 nM.

On to `CCCOc1nnn(Cc2c(-c3ccc(O[C@H]4CCC[C@@H](C(=O)O)C4)c(C)n3)nnn2C)n1` [Example 347, (1R,3S)-3-[(2-methyl-6-{1-methyl-5-[(5-propoxy-2H-1,2,3,4-tetrazol-2-yl)methyl]-1H-1,2,3-triazol-4-yl}pyridin-3-yl)oxy]cyclohexane-1-carboxylic acid], for which the IC50 under setting [1] came out at 270 nM.

Turning to `Cc1nc(-c2nnn(C)c2Cn2nnc(OCC3CC3)n2)ccc1O[C@H]1CCC[C@H](C(=O)O)C1` [Example 348, (1S,3S)-3-{[6-(5-{[5-(cyclopropyl-methoxy)-2H-1,2,3,4-tetrazol-2-yl]methyl}-1-methyl-1H-1,2,3-triazol-4-yl)-2-methylpyridin-3-yl]oxy}cyclohexane-1-carboxylic acid], under setting [1], the IC50 is 26 nM.

Take `Cc1c(O[C@H]2CCC[C@H](C(=O)O)C2)ccc(-c2nnn(C)c2Cn2nnc(OCC3CC3)n2)[n+]1[O-]` [Example 349, 3-{[(1S,3S)-3-carboxycyclohexyl]oxy}-6-(5-{[5-(cyclopropyl-methoxy)-2H-1,2,3,4-tetrazol-2-yl]methyl}-1-methyl-1H-1,2,3-triazol-4-yl)-2-methylpyridin-1-ium-1-olate]: the IC50 under setting [1] came to 304 nM.

Take `Cc1nc(-c2nnn(C)c2Cn2nnnc2S(C)(=O)=O)ccc1O[C@H]1CCC[C@H](C(=O)O)C1` [Example 350, (1S,3S)-3-[(6-{5-[(5-methanesul-fonyl-1H-1,2,3,4-tetrazol-1-yl)methyl]-1-methyl-1H-1,2,3-triazol-4-yl}-2-methylpyridin-3-yl)oxy]cyclohexane-1-carboxylic acid]: the IC50 under setting [1] came to 1240 nM.

Turning to `Cc1nc(-c2nnn(C)c2Cn2nnnc2OCC2CC2)ccc1O[C@H]1CCC[C@H](C(=O)O)C1` [Example 351, (1S,3S)-3-{[6-(5-{[5-(cyclopropyl-methoxy)-1H-1,2,3,4-tetrazol-1-yl]methyl}-1-methyl-1H-1,2,3-triazol-4-yl)-2-methylpyridin-3-yl]oxy}cyclohexane-1-carboxylic acid], under setting [1], the IC50 stood at 152 nM.

On to `CSc1nnnn1Cc1c(-c2ccc(O[C@H]3CCC[C@H](C(=O)O)C3)c(C)n2)nnn1C` [Example 352, (1S,3S)-3-{[2-methyl-6-(1-methyl-5-{[5-(methylsulfanyl)-1H-1,2,3,4-tetrazol-1-yl]methyl}-1H-1,2,3-triazol-4-yl)pyridin-3-yl]oxy}cyclohexane-1-carboxylic acid], for which the IC50 under setting [1] was 580 nM.

Turning to `CSc1nnn(Cc2c(-c3ccc(O[C@H]4CCC[C@H](C(=O)O)C4)c(C)n3)nnn2C)n1` [Example 353, (1S,3S)-3-{[2-methyl-6-(1-methyl-5-{[5-(methylsulfanyl)-2H-1,2,3,4-tetrazol-2-yl]methyl}-1H-1,2,3-triazol-4-yl)pyridin-3-yl]oxy}cyclohexane-1-carboxylic acid], the IC50 under setting [1] is 800 nM.

On to `Cc1nc(-c2nnn(C)c2Cn2nnnc2C2CCC2)ccc1O[C@H]1CCC[C@H](C(=O)O)C1` [Example 354, (1S,3S)-3-[(6-{5-[(5-cyclobutyl-1H-1,2,3,4-tetrazol-1-yl)methyl]-1-methyl-1H-1,2,3-triazol-4-yl}-2-methylpyridin-3-yl)oxy]cyclo-hexane-1-carboxylic acid], for which the IC50 under setting [1] stood at 226 nM.

In the case of `Cc1nc(-c2nnn(C)c2Cn2nnc(C3CCC3)n2)ccc1O[C@H]1CCC[C@H](C(=O)O)C1` [Example 355, (1S,3S)-3-[(6-{5-[(5-cyclobutyl-2H-1,2,3,4-tetrazol-2-yl)methyl]-1-methyl-1H-1,2,3-triazol-4-yl}-2-methylpyridin-3-yl)oxy]cyclohexane-1-carboxylic acid], the IC50 under setting [1] was 32 nM.

For `Cc1nc(-c2nnn(C)c2Cn2nnnc2CC2CCC2)ccc1O[C@H]1CCC[C@H](C(=O)O)C1` [Example 356, (1S,3S)-3-{[6-(5-{[5-(cyclobutyl-methyl)-1H-1,2,3,4-tetrazol-1-yl]methyl}-1-methyl-1H-1,2,3-triazol-4-yl)-2-methylpyridin-3-yl]oxy}cyclohexane-1-carboxylic acid], the IC50 under setting [1] stood at 146 nM.

In the case of `Cc1nc(-c2nnn(C)c2Cn2nnnc2CCC2CC2)ccc1O[C@H]1CCC[C@H](C(=O)O)C1` [Example 357, (1S,3S)-3-{[6-(5-{[5-(2-cyclopro-pylethyl)-1H-1,2,3,4-tetrazol-1-yl]methyl}-1-methyl-1H-1,2,3-triazol-4-yl)-2-methylpyridin-3-yl]oxy}cyclohexane-1-carboxylic acid], the IC50 under setting [1] was 332 nM.

In the case of `Cc1nc(-c2nnn(C)c2Cn2nnc(N(CC3CC3)CC3CC3)n2)ccc1O[C@H]1CCC[C@H](C(=O)O)C1` [Example 358, (1S,3S)-3-((6-(5-((5-(bis(cyclo-propylmethyl)amino)-2H-tetrazol-2-yl)methyl)-1-methyl-1H-1,2,3-triazol-4-yl)-2-methylpyridin-3-yl)oxy)cyclohexane-1-carboxylic acid], the IC50 was 949 nM.
